Results published in US9970938B2, “Use of BUBR1 as a biomarker of drug response to furazanobenzimidazoles” (Basilea Pharmaceutica AG, priority 2011, dated 2018).

Key:
Assay type in all cases: cell-based, human
A549 NSCLC cells = assay: Immunofluorescent staining of microtubules in cultured cells
Method: (§1) A549 human non-small cell lung cancer (NSCLC, ATCC reference number CCL-185) cells, HeLa cervical cancer cells (ATCC reference number CCL-2) and SKBR3 breast carcinoma cells (ATCC reference number HTB-30) were seeded at densities of 50% on round microscope coverslips and cultured for 24 hours in RPMI-1640 containing 10% FCS (also referred to as FBS) at 37° C., 5% CO2. Compounds to be tested were dissolved in DMSO. The cell culture medium was replaced with medium containing the diluted compound(s) (paclitaxel, vinblastine, colchicine and nocodazole were purchased from Sigma-Aldrich) or vehicle. After treatment, coverslips were washed and cells were fixed in methanol/acetone (1:1) for 5 minutes at room temperature and subsequently incubated in blocking buffer (0.5% BSA and 0.1% TX-100 in PBS) for 30 minutes at room temperature. Specimens were then incubated with anti-alpha-tubulin antibody (Sigma, 1:2000) for 1 hour at room temperature in blocking buffer. After several washing steps cells were incubated with AlexaFluor-488 goat-anti-mouse IgG (Molecular Probes, 1:3000) for 1 hour at room temperature followed by several washing steps with blocking buffer. Specimens were then mounted with ProLong Gold antifade (Molecular Probes), sealed with nail polish and examined with a Leica immunofluorescence microscope. Images were captured with a cooled CCD-camera and processed by ImageJ software.

[1] = test system: HeLa cervical cancer cells; assay: as above; settings: 24 hours, 50 nM
Method: as §1

[2] = test system: SKBR3 breast cancer cells; assay: as above; settings: 24 hours, 50 nM
Method: as §1

HeLa cells [3] = assay: YO-PRO assay of siRNA-treated cells; settings: BUBR1 siRNA pool, 48 hours treatment
Method: For siRNA experiments to assess effects on BUBR1 expression levels by immunoblotting and effects on tumour cell proliferation and viability using the YO-PRO assay (FIGS. 7, 9,10 and 11), and Crystal Violet Assay (FIGS. 12 and 13), cells were seeded in 6 well plates at an appropriate density: HeLa (cervical cancer cells; ATCC reference CCL-2) 2.5E+04 (for YO-PRO) or 4.0E+04 (for Crystal Violet) cells per well, H460 (NSCLC cells; ATCC reference HTB-177) 5.0E+04 cells per well, MCF-7 (breast carcinoma cells; ATCC reference HTB-22) 2.4E+05 cells per well, Panc1 (pancreatic cancer cells, ATCC reference CRL-1469) and HCT116 (colon cancer cells, ATCC reference CCI-247) 8E+04 cells per well, and were cultured at 37° C. and 5% CO2 in RPMI-1640 or DMEM containing 10% FCS (complete medium). […]
12.5 μl YO-PRO®-1 iodide (491/509)(Invitrogen/Molecular Probes, # Y-3603; 1 mM in DMSO) were added to 1 ml 5-times concentrated YO-PRO buffer (100 mM Na-citrate, pH 4.0; 134 mM NaCl) to produce the YO-PRO Mix. […] The uptake of YO-PRO dye into cells was assessed by using a SpectraMax M2^e plate reader (Molecular Devices) using 485 nm excitation and 538 nm emission at a cutoff of 530 nm. […] Fluorescent read-out was performed in a SpectraMax M2^e plate reader (Molecular Devices) using 485 nm excitation and 538 nm emission at a cut off of 530 nm. […]

HCT116 cells = assay: Crystal Violet assay of siRNA-treated cells; settings: BUBR1 siRNA pool, 50 nM, 48 hours
Method: (§2) For siRNA experiments to assess effects on BUBR1 expression levels by immunoblotting and effects on tumour cell proliferation and viability using the YO-PRO assay (FIGS. 7, 9,10 and 11), and Crystal Violet Assay (FIGS. 12 and 13), cells were seeded in 6 well plates at an appropriate density: HeLa (cervical cancer cells; ATCC reference CCL-2) 2.5E+04 (for YO-PRO) or 4.0E+04 (for Crystal Violet) cells per well, H460 (NSCLC cells; ATCC reference HTB-177) 5.0E+04 cells per well, MCF-7 (breast carcinoma cells; ATCC reference HTB-22) 2.4E+05 cells per well, Panc1 (pancreatic cancer cells, ATCC reference CRL-1469) and HCT116 (colon cancer cells, ATCC reference CCI-247) 8E+04 cells per well, and were cultured at 37° C. and 5% CO2 in RPMI-1640 or DMEM containing 10% FCS (complete medium). Cells were transfected the following day with a mixture of four BUBR1 siRNAs (ON-Target-plus Smartpool L-004101, Dharmacon, see sequence information below), the four individual BUBR1 siRNAs (ON-Target-plus Set of four upgrade LU-004101) or non-targeting control siRNAs (ON-Target-plus non-targeting pool D001810, Dharmacon), using Hiperfect (Qiagen) for H460, Panc1 and HCT116 or Lipofectamine2000 (Invitrogen) for HeLa and MCF-7 according to manufacturer's instructions. The final concentration of siRNA was 10 nM (H460) or 20-30 nM (HeLa) or 20 nM (MCF-7, Panc1, HCT116). Cells were maintained at 37° C. and 5% CO2 for 24 hours before compound treatment for 48 hours, followed by YO-PRO analysis, Crystal Violet Assay or extraction for immunoblot assay. ON-Target-plus siRNAs are dual-strand siRNAs, chemically modified to improve specificity for the desired target.
(§3) Cells were incubated for 48 hours with DMSO or BAL27862 diluted in complete medium (final concentration DMSO 0.5%). After medium was removed, cells were fixed and stained by adding 1 ml Crystal Violet Staining (0.2% Crystal Violet in 50% Methanol) per well. Plates were incubated for 1 hour at room temperature. Subsequently the stain was decanted and plates were washed 4 times with double-distilled water. Plates were air-dried for several hours. Stain was dissolved by adding 2 ml buffer (0.1 M Tris pH 7.5, 0.2% SDS, 20% Ethanol) per well and shaking the plates. Absorbance at 590 nm was measured using a SpectraMax M2^e plate reader (Molecular Devices). In order to subtract starting cell numbers, a control plate was fixed and stained on the same day the compound was added. Final results were calculated by subtracting the starting cell absorbance from that of control (DMSO) or compound treated cells. Values lower than zero indicate cell death.

HeLa cells [4] = assay: Crystal Violet assay of siRNA-treated cells; settings: 48 hours
Method: as §2, §3

Panc1 cells = assay: Crystal Violet assay of siRNA-treated cells; settings: BUBR1 siRNA pool, 30 nM, 48 hours
Method: as §2, §3

SMILES: N#CCCNc1nonc1-c1nc2ccccc2n1CC(=O)c1ccc(N)cc1 [BAL27862, 3-(4-{1-[2-(4-Amino-phenyl)-2-oxo-ethyl]-1H-benzoimidazol-2-yl}-furazan-3-ylamino)-propionitrile]
- microtubule phenotype of mitotic or G2/M arrested cells (A549 NSCLC cells; 24 hours treatment, anti-alpha-tubulin staining): highly reproducible and distinct microtubule phenotype
- microtubule phenotype, BAL27862 added for the last 4 hours of 24 hours vinblastine, colchicine, paclitaxel or nocodazole treatment (A549 NSCLC cells; combination): disruption of the microtubule structures
- microtubule phenotype of mitotic or G2/M arrested cells [1]: highly reproducible and distinct microtubule phenotype
- microtubule phenotype of mitotic or G2/M arrested cells [2]: highly reproducible and distinct microtubule phenotype
- antiproliferative effect with reduced BUBR1 expression (HeLa cells [3]): dramatically reduced
- tumour cell death with reduced BUBR1 expression (HeLa cells [3]): no increase in tumour cell death observed
- cellular proliferation with reduced BUBR1 expression (HCT116 cells): same effects were again observed
- cellular proliferation with reduced BUBR1 expression (HeLa cells [4]; BUBR1 siRNA pool, 50 nM): same effects were again observed
- effect on cellular proliferation after individual BUBR1 siRNAs (HeLa cells [4]; siRNA #1-4, 50 nM): decreased the effect of BAL27862 on cellular proliferation
- cellular proliferation with reduced BUBR1 expression (Panc1 cells): same effects were again observed
